This note sets out measurements from patent publication US8674118B2, “Compounds and methods for the treatment or prevention of flavivirus infections” (priority 2005, dated 2014).

The subject of this experiment is HCV RNA replication (replicon cell lines Huh-7, 5.2 and ET). Briefly: Cell-Based Luciferase Reporter HCV RNA Replication Assay. The note with it: Huh-7, 5.2 or ET replicon cells, luciferase counts after 4 days incubation, read-out: IC50.

The structures appear in SMILES notation. Structures can show the parent of a compound that is named as a salt. Where two headings read alike, the source gives them in different places.

A word on the IC50: it is the concentration that gives 50% inhibition. Consider `CNC(=O)C1CCC(N(C(=O)C2CCC(C)CC2)c2cc(C3=CCCCC3)sc2C(=O)O)CC1C(=O)O` (stereo not drawn) [Compound 68, 3-[(3-trans-carboxy-4-trans-methylcarbamoyl-cyclohexyl)-(4-trans-methyl-cyclohexanecarbonyl)-amino]-5-cyclohex-1-enyl-thiophene-2-carboxylic acid], for which the IC50 (Hepatitis C virus, Huh-7, 96 h) is below 5 µM.

Consider `CC1CC=C(c2cc(N(C(=O)C3CCC(C)CC3)C3CCCCC3)c(C(=O)O)s2)CC1` (stereo not drawn) [Compound 47, RS-3-[cyclohexyl-(4-trans-methyl-cyclohexanecarbonyl)-amino]-5-(4-methyl-cyclohex-1-enyl)-thiophene-2-carboxylic acid], for which the IC50 (Hepatitis C virus, Huh-7, 96 h) was below 5 µM.

For the molecule `C[C@H]1CC[C@H](C(=O)N(c2cc(C3=CCCCC3)sc2C(=O)O)[C@H]2CC[C@@H](F)CC2)CC1` [Compound 57, 5-cyclohex-1-enyl-3-[(cis-4-fluoro-cyclohexyl)-(trans-4-methyl-cyclohexanecarbonyl)-amino]-thiophene-2-carboxylic acid], the 50% inhibitory concentration (IC50) (Hepatitis C virus, Huh-7, 96 h) was below 5 µM.

As for `C[C@H]1CC[C@H](C(=O)N(c2ccccc2)c2cc(C3=CCCCC3)sc2C(=O)O)CC1` [Compound 10, 5-Cyclohex-1-enyl-3-[(trans-4-methyl-cyclohexanecarbonyl)-phenyl-amino]-thiophene-2-carboxylic acid], the IC50 (Hepatitis C virus, Huh-7, 96 h) was below 5 µM.

In the case of `CC1(C)CC=C(c2cc(N(C(=O)[C@H]3CC[C@H](C)CC3)[C@H]3CC[C@@H](n4cncn4)CC3)c(C(=O)O)s2)CC1` [Compound 94, 5-(4,4-dimethyl-cyclohex-1-enyl)-3-[(trans-4-methyl-cyclohexanecarbonyl)-(cis-4-[1,2,4]triazol-1-yl-cyclohexyl)-amino]-thiophene-2-carboxylic acid; hydrochloride], for the setting “Hepatitis C virus, Huh-7, 96 h”, the IC50 is below 5 µM.

For `COC1CCC(N(C(=O)C2CCC(C)CC2)c2cc(C3CC=C(F)CC3)sc2C(=O)O)CC1` (stereo not drawn) [Compound 123, RS-5-(4-fluoro-cyclohex-3-enyl)-3-[(4-trans-methoxy-cyclohexyl)-(4-trans-methyl-cyclohexanecarbonyl)-amino]-thiophene-2-carboxylic acid], the IC50 (Hepatitis C virus, Huh-7, 96 h) is below 5 µM.

As to `CC1CCC(C(=O)N(c2cc(C3=CCC4(CC3)OCCO4)sc2C(=O)O)C2CCC(O)CC2)CC1` (stereo not drawn) [Compound 14, 5-(1,4,Dioxa-spiro[4.5.]dec-7-en-8-yl)-3-[(trans-4-hydroxy-cyclohexyl)-(trans-4-methyl-cyclohexanecarbonyl)-amino]-thiophene-2-carboxylic acid], for the setting “Hepatitis C virus, Huh-7, 96 h”, the IC50 was below 5 µM.

Regarding `CCN1CC2(CCC(N(C(=O)C3CCC(C)CC3)c3cc(C4=CCCCC4)sc3C(=O)O)CC2)CC1=O` (stereo not drawn) [Compound 129, 5-cyclohex-1-enyl-3-[trans(2-ethyl-33-oxo-2-aza-spiro[4.5]dec-8-yl)-(trans-4-methylcyclohexanecarbonyl)-amino]-thiophene-2-carboxylic acid], the IC50 (Hepatitis C virus, Huh-7, 96 h) was below 5 µM.

Take `CC1CCC(C(=O)N(c2cc(C3=CCCCC3)sc2C(=O)O)C2CC[S+]([O-])CC2)CC1` (stereo not drawn) [Compound 63, 5-cyclohex-1-enyl-3-[(trans-4-methyl-cyclohexanecarbonyl)-(1-oxo-hexahydro-1-thiopyran-4-yl)-amino]-thiophene-2-carboxylic acid]: the IC50 (Hepatitis C virus, Huh-7, 96 h) is below 5 µM.

In the case of `C[C@H]1CC[C@H](C(=O)N(c2cc(C3=CCCCC3)sc2C(=O)O)[C@H]2CC[C@@H](O)CC2)CC1` [Compound 9, 5-Cyclohex-1-enyl-3-[(cis-4-hydroxy-cyclohexyl)-(trans-4-methyl-cyclohexanecarbonyl)-amino]-thiophene-2-carboxylic acid], the IC50 (Hepatitis C virus, Huh-7, 96 h) was below 5 µM.

Turning to `CC1OCC(N(c2cc(C3=CCCCC3)sc2C(=O)O)C(=O)[C@H]2CC[C@H](C)CC2)CO1` (relative stereo) [Compound 36, 5-cyclohex-1-enyl-3-[(trans-4-methyl-cyclohexanecarbonyl)-(2-methyl-[1,3]dioxan-5-yl)-amino]-thiophene-2-carboxylic acid], the IC50 (Hepatitis C virus, Huh-7, 96 h) was below 5 µM.

Turning to `CCO[C@H]1CC[C@H](N(c2cc(C3=CCCCC3)sc2C(=O)O)C(=O)[C@H]2CC[C@H](C)CC2)CC1` [Compound 22, 5-Cyclohex-1-enyl-3-[(trans-4-ethoxy-cyclohexyl)-(trans-4-methyl-cyclohexanecarbonyl)-amino]-thiophene-2-carboxylic acid], where the note is “Hepatitis C virus, Huh-7, 96 h”, the 50% inhibitory concentration (IC50) was below 5 µM.

Regarding `C[C@H]1CC[C@H](C(=O)N(c2cc(C3=CCCCC3)sc2C(=O)O)[C@H]2CC[C@H](O)CC2)CC1` [Compound 1, 5-Cyclohex-1-enyl-3-[(trans-4-hydroxy-cyclohexyl)-(trans-4-methyl-cyclohexanecarbonyl)-amino]-thiophene-2-carboxylic acid], the concentration for half-maximal inhibition (IC50) (Hepatitis C virus, Huh-7, 96 h) is below 5 µM.

For the molecule `CO[C@H]1CC[C@H](N(c2cc(C3CCC(C)(C)CC3)sc2C(=O)O)C(=O)[C@H]2CC[C@H](C)CC2)CC1` [Compound 21, 5-(4,4-Dimethyl-cyclohexyl)-3-[(trans-4-methoxy-cyclohexyl)-(trans-4-methyl-cyclohexanecarbonyl)-amino]-thiophene-2-carboxylic acid], the half-inhibitory concentration (IC50) (Hepatitis C virus, Huh-7, 96 h) is below 5 µM.

Take `CC1CCC(C(=O)N(c2cc(C3=CCCC(C)C3)sc2C(=O)O)C2CCC(O)CC2)CC1` (stereo not drawn) [Compound 61, RS-3-[(4-trans-hydroxy-cyclohexyl)-(4-trans-methyl-cyclohexanecarbonyl)-amino]-5-(5-methyl-cyclohex-1-enyl)-thiophene-2-carboxylic acid]: the IC50 was below 5 µM.

In the case of `COCC1CCC(N(C(=O)C2CCC(C)CC2)c2cc(C3=CCCCC3)sc2C(=O)O)CC1` (stereo not drawn) [Compound 132, 5-cyclohex-1-enyl-3-[(4-trans-methoxymethyl-cyclohexyl)-(4-trans-methyl-cyclohexanecarbonyl)-amino]-thiophene-2-carboxylic acid], the 50% inhibitory concentration (IC50) is below 5 µM.

Consider `CC(C)N(c1cc(C2=CCCCC2)sc1C(=O)O)C(=O)[C@H]1CC[C@H](C)CC1` [Compound 7, 5-Cyclohex-1-enyl-3-[isopropyl-(trans-4-methyl-cyclohexanecarbonyl)-amino]-thiophene-2-carboxylic acid], for which, under “Hepatitis C virus, Huh-7, 96 h”, the IC50 is below 5 µM.

On to `CC1CCC(C(=O)N(c2cc(C3=CCC(=O)CC3)sc2C(=O)O)C2CCC(O)CC2)CC1` (stereo not drawn) [Compound 25, 3-[(4-trans-hydroxy-cyclohexyl)-(4-trans-methyl-cyclohexanecarbonyl)-amino]-5-(4-oxo-cyclohex-1-enyl)-thiophene-2-carboxylic acid], for which, under “Hepatitis C virus, Huh-7, 96 h”, the IC50 was 5 to 25 µM.

As for `CC1CCC(C(=O)N(c2cc(C3=CCCCC3)sc2C(=O)O)C2CC=CCC2)CC1` (stereo not drawn) [Compound 115, RS-5-cyclohex-1-enyl-3-[cyclohex-3-enyl-(4-trans-methyl-cyclohexanecarbonyl)-amino]-thiophene-2-carboxylic acid], the IC50 (Hepatitis C virus, Huh-7, 96 h) was below 5 µM.

As to `CC1CCC(C(=O)N(c2cc(C3=CCC(C)(C)CC3)sc2C(=O)O)C2CCC(O)CC2)CC1` (stereo not drawn) [Compound 35, 5-(4,4-dimethyl-cyclohex-1-enyl)-3-[(4-trans-4-hydroxy-cyclohexyl)-(trans-4-methyl-cyclohexanecarbonyl)-amino]-thiophene-2-carboxylic acid], under “Hepatitis C virus, Huh-7, 96 h”, the IC50 is below 5 µM.

With `CC1CCC(C(=O)N(c2cc(C3=CCCCC3)sc2C(=O)O)C2CCC(C)(C#N)CC2)CC1` (stereo not drawn) [Compound 99, 3-[(cis-4-cyano-4-methyl-cyclohexyl)-(trans-4-methyl-cyclohexanecarbonyl)-amino]-5-cyclohex-1-enyl-thiophene-2-carboxylic acid], the IC50 (Hepatitis C virus, Huh-7, 96 h) was below 5 µM.

`C[C@H]1CC[C@H](C(=O)N(c2cc(C3=CCCCC3)sc2C(=O)O)C2CCCCC2)CC1` [Compound 11, 5-Cyclohex-1-enyl-3-[cyclohexyl-(trans-4-methyl-cyclohexanecarbonyl)-amino]-thiophene-2-carboxylic acid]: the IC50 (Hepatitis C virus, Huh-7, 96 h) was below 5 µM.

Take `COc1ccc2c(c1)CC(N(C(=O)C1CCC(C)CC1)c1cc(C3=CCCCC3)sc1C(=O)O)CC2` (stereo not drawn) [Compound 67, RS-5-cyclohex-1-enyl-3-[(7-methoxy-1,2,3,4-tetrahydro-naphthalen-2-yl)-(4-trans-methyl-cyclohexanecarbonyl)-amino]-thiophene-2-carboxylic acid]: the IC50 (Hepatitis C virus, Huh-7, 96 h) is below 5 µM.

`C[C@H]1CC[C@H](C(=O)N(c2cc(C3=CCCCC3)sc2C(=O)O)C2CC2)CC1` [Compound 51, 5-cyclohex-1-enyl-3-[cyclopropyl-(trans-4-methyl-cyclohexanecarbonyl)-amino]-thiophene-2-carboxylic acid]: the IC50 (Hepatitis C virus, Huh-7, 96 h) fell in the range of 5 to 25 µM.

As for `CC1CCC(C(=O)N(c2cc(C3=CCCCC3)sc2C(=O)O)C2CCC(n3ccnn3)CC2)CC1` (stereo not drawn) [Compound 104, 5-cyclohex-1-enyl-3-[(trans-4-methyl-cyclohexanecarbonyl)-(cos-4-[1,2,3]triazol-1-yl-cyclohexyl)-amino]-thiophene-2-carboxylic acid], the IC50 (Hepatitis C virus, Huh-7, 96 h) was below 5 µM.

For the molecule `CC1CCC(C(=O)N(c2cc(C3=CCCCCC3)sc2C(=O)O)C2CCCCC2)CC1` (stereo not drawn) [Compound 46, 5-cyclohept-1-enyl-3-[cyclohexyl-(4-trans-methyl-cyclohexanecarbonyl)-amino]-thiophene-2-carboxylic acid], under “Hepatitis C virus, Huh-7, 96 h”, the half-maximal inhibitory concentration (IC50) is below 5 µM.

As to `CC1CCC(C(=O)N(c2cc(C3=CCCCC3)sc2C(=O)O)C2CCC3(CC2)CNC(=O)C3)CC1` (stereo not drawn) [Compound 80, 5-cyclohex-1-enyl-3-[(trans-4-methyl-cyclohexanecarbonyl)-cis-(3-oxo-2-aza-spiro[4.5]dec-8-yl)-amino]-thiophene-2-carboxylic acid], the IC50 (Hepatitis C virus, Huh-7, 96 h) was below 5 µM.

As for `CO[C@H]1CC[C@H](N(c2cc(C3=C(F)CCCC3F)sc2C(=O)O)C(=O)[C@H]2CC[C@H](C)CC2)CC1` (relative stereo) [Compound 119, 5-(2,6-difluoro-cyclohex-1-enyl)-3-[(trans-4-methoxy-cyclohexyl)-(trans-4-methyl-cyclohexanecarbonyl)-amino]-thiophene-2-carboxylic acid], where the note is “Hepatitis C virus, Huh-7, 96 h”, the IC50 is below 5 µM.

Regarding `C[C@H]1CC[C@H](C(=O)N(c2cc(C3=CCCCC3)sc2C(=O)O)[C@H]2CC[C@H](c3nnn[nH]3)CC2)CC1` [Compound 62, 5-cyclohex-1-enyl-3-{(trans-4-methyl-cyclohexanecarbonyl)-[trans-4-(1h-tetrazol-5-yl)-cyclohexyl]-amino}-thiophene-2-carboxylic acid], where the note is “Hepatitis C virus, Huh-7, 96 h”, the IC50 was below 5 µM.
